Reference: patent US7169800B2, “Imidazole compositions useful as inhibitors of protein kinases” (Vertex Pharmaceuticals Incorporated, priority 2003, dated 2007)

Key:
Assay type in all cases: biochemical
KDR = KDR (Homo sapiens, UniProt P35968); test: KDR enzyme assay (coupled enzyme assay); conditions: 300 μM ATP, 10 μM poly E4Y, 30 nM KDR, 37° C.; read-out: Ki value, inhibition of KDR
Protocol: Compounds were screened for their ability to inhibit KDR using a standard coupled enzyme assay (Fox et al., Protein Sci., (1998) 7, 2249). Assays were carried out in a mixture of 200 mM HEPES 7.5, 10 mM MgCl2, 25 mM NaCl, 1 mM DTT and 1.5% DMSO. Final substrate concentrations in the assay were 300 μM ATP (Sigma Chemicals) and 10 μM poly E4Y (Sigma). Assays were carried out at 37° C. and 30 nM KDR. Final concentrations of the components of the coupled enzyme system were 2.5 mM phosphoenolpyruvate, 200 μM NADH, 30 μg/ML pyruvate kinase and 10 μg/ml lactate dehydrogenase.
An assay stock buffer solution was prepared containing all of the reagents listed above, with the exception of ATP and the test compound of interest. 177 μl of the stock solution was placed in a 96 well plate followed by addition of 3 μl of 2 mM DMSO stock containing the test compound (final compound concentration 30 μM). The plate was preincubated for about 10 minutes at 37° C. and the reaction initiated by addition of 20 μl of ATP (final concentration 300 μM). Rates of reaction were obtained using a Molecular Devices plate reader (Sunnyvale, Calif.) over a 5 minute read time at 37° C.

JAK3 = molecular target: T1, JAK3 (Homo sapiens, UniProt P52333); test: JAK3 inhibition assay (33P incorporation); conditions: 5 uM ATP, 1 uM poly(Glu)4Tyr, 1 nM JAK3, 25C
T1 sequence (P52333 1-1124): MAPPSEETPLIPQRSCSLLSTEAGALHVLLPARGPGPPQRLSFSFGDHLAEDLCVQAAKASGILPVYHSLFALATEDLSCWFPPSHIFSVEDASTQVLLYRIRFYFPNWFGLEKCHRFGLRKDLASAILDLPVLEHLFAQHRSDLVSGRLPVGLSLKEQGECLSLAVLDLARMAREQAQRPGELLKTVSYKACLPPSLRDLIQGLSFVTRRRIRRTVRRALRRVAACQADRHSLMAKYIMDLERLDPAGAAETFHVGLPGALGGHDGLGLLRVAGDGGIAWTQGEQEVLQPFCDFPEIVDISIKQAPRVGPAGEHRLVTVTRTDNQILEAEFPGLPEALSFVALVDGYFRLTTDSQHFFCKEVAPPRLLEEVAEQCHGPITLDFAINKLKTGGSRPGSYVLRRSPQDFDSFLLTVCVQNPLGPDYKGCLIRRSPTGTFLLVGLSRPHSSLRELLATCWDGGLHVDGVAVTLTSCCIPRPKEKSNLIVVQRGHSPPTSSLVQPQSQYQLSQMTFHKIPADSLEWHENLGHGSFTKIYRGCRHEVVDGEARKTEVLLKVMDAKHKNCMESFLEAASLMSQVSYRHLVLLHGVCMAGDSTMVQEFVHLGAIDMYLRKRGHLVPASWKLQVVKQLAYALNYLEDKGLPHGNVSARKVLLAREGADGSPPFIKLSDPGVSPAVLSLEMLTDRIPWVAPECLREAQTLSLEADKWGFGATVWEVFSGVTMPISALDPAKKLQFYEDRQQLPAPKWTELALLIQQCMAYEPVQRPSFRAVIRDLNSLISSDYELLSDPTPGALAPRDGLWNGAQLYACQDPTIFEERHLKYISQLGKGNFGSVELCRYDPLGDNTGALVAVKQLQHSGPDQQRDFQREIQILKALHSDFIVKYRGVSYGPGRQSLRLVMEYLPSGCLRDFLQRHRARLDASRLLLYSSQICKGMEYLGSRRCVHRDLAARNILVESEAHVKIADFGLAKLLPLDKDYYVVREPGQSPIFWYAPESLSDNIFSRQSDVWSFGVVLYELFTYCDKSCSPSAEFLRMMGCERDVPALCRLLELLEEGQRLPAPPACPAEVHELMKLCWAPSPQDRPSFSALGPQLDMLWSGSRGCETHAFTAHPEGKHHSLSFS
Protocol: • kinase buffer: (100 mM HEPES pH 7.4; 1 mM DTT; 10 mM MgCl2; 25 mM NaCl; and 0.01% BSA) • 1 nM JAK3 (enzyme) • 1 uM poly(Glu)4Tyr (substrate) • 5 uM ATP (substrate, 200 uCi/umole ATP) Procedure
To each well of a 96 well polycarbonate plate is added 1.5 ul of a candidate JAK3 inhibitor along with 50 ul of kinase buffer containing 2 uM poly(Glu)4Tyr and 10 uM ATP. This is then mixed and 50 ul of kinase buffer containing 2 nM JAK3 enzyme is added to start the reaction. After 20 minutes at room temperature (25C), the reaction is stopped with 50 ul of 20% trichloroacetic acid (TCA) that also contains 0.4 mM ATP. The entire content of each well is then transferred to a 96 well glass fiber filter plate using a TomTek Cell Harvester. After washing, 60 ul of scintillation fluid is added and 33P incorporation detected on a Perkin Elmer TopCount.

c-Met = c-Met (Homo sapiens, UniProt P08581); test: Ki determination for the inhibition of c-Met (coupled enzyme system); conditions: 200 μM ATP, 10 μM polyGluTyr, 80 nM c-Met, 30° C.
c-Met, sequence (P08581 25-1390): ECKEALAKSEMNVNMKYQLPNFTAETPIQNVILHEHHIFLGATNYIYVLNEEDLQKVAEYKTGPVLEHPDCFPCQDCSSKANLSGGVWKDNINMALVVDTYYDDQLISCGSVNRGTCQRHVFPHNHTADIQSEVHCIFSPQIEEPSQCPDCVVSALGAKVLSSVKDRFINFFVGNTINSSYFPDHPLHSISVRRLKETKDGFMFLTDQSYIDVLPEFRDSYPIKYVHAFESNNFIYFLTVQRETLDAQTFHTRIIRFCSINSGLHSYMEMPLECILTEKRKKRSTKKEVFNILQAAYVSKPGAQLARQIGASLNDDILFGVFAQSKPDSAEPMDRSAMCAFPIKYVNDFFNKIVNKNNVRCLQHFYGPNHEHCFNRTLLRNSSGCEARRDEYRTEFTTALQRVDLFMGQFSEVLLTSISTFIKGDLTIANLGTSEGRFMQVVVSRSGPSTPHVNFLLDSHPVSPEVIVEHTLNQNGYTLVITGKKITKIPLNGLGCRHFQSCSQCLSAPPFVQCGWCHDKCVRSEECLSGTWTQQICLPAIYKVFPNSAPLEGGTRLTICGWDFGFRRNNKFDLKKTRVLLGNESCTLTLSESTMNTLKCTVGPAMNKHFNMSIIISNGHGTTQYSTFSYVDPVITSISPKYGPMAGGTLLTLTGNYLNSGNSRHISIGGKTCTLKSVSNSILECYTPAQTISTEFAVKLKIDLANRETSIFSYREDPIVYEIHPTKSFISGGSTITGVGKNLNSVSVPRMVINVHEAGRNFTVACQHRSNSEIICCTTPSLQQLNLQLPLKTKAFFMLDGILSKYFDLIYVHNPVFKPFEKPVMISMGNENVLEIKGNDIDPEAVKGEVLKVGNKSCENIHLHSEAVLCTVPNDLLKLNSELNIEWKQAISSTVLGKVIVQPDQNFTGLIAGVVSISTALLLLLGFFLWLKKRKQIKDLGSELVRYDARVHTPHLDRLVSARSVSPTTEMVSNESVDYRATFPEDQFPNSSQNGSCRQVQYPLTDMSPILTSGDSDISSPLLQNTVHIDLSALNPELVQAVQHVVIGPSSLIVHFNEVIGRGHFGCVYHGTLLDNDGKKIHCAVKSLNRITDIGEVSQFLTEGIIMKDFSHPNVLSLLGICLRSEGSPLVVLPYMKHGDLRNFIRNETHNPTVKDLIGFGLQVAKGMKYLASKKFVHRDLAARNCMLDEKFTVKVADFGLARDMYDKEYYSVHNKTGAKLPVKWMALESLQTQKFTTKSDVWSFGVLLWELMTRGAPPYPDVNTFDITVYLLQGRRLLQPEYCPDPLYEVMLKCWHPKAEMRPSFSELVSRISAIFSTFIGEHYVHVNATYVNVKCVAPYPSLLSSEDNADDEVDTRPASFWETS
Protocol: Compounds were screened for their ability to inhibit c-Met kinase activity using a standard coupled enzyme system (Fox et al., Protein Sci. 1998, 7, 2249). Reactions were carried out in a solution containing 100 mM HEPES (pH 7.5), 10 mM MgCl2, 25 mM NaCl, 300 μM NADH, 1 mM DTT, and 1.5% DMSO. Final substrate concentrations in the assay were 200 μM ATP (Sigma Chemicals, St Louis, Mo.) and 10 μM polyGluTyr (Sigma Chemical Company, St. Louis). Reactions were carried out at 30° C. and 80 nM c-Met. Final concentrations of the components of the coupled enzyme system were 2.5 mM phosphoenolpyruvate, 300 μM NADH, 30 μg/ml pyruvate kinase and 10 μg/ml lactate dehydrogenase.
An assay stock buffer solution was prepared containing all of the reagents listed above with the exception of ATP and a test compound of the present invention. The assay stock buffer solution (175 μl) was incubated in a 96 well plate with 5 μl of the test compound of the present invention at final concentrations spanning 0.006 μM to 12.5 μM at 30° C. for 10 minutes. […] Rates of reaction were obtained using a Molecular Devices Spectramax plate reader (Sunnyvale, Calif.) over 10 minutes at 30° C. The Ki values were determined from the rate data as a function of inhibitor concentration.

KDR, sequence (P35968 20-1356): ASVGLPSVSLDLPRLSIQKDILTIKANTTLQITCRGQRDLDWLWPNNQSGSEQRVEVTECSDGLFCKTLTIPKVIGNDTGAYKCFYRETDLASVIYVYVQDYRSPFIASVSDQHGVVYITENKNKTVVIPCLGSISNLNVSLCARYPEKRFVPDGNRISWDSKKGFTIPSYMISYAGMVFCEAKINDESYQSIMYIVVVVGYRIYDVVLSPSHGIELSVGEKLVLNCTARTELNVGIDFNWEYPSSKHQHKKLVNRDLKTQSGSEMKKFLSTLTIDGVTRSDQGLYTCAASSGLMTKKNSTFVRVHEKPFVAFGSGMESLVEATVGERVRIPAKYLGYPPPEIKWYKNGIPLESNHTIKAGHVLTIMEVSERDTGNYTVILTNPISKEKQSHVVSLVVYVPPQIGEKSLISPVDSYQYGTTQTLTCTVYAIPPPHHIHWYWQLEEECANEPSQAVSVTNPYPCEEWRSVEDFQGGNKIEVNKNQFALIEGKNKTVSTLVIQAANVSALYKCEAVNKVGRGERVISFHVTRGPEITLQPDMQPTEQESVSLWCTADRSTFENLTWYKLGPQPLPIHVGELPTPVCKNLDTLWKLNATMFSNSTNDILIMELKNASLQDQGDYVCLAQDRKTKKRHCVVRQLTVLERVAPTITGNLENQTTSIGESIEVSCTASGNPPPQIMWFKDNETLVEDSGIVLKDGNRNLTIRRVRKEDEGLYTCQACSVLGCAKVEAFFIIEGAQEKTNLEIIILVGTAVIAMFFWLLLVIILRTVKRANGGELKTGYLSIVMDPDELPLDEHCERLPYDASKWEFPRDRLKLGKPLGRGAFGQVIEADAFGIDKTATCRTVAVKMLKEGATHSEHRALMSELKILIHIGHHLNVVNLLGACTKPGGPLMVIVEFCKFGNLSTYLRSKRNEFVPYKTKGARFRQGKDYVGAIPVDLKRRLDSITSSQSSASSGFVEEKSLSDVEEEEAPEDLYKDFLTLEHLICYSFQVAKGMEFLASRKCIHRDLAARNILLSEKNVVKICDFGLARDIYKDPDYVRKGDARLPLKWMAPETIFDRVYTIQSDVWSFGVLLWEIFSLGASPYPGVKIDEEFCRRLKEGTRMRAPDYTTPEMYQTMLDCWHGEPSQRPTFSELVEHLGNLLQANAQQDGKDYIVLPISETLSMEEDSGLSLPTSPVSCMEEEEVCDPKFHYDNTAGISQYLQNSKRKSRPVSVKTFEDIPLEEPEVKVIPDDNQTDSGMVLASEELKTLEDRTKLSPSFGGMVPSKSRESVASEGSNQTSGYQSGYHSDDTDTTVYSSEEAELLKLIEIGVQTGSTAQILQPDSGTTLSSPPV

- Ki (KDR): < 5 µM
- Ki (JAK3): < 1 µM
- Ki (c-Met): < 1 µM
Structure (SMILES): O=C(c1nc(-c2oncc2-c2cccc(F)c2F)c[nH]1)N1CC=CC1 [Compound I-38, {4-[4-(2,3-Difluoro-phenyl)-isoxazol-5-yl]-1H-imidazol-2-yl}-(2,5-dihydro-pyrrol-1-yl)-methanone]
